Measurements as given in ChEMBL document CHEMBL1139972, “Dihydro-[1H]-quinolin-2-ones as retinoid X receptor (RXR) agonists for potential treatment of dyslipidemia” (Bioorg Med Chem Lett, 2007).
pEC50: −log10 of the molar value.

Legend:
[1] = molecular target: T1, Retinoic acid receptor RXR-alpha (Homo sapiens, UniProt P19793); assay: Activity at RXRalpha by GAL4DNA cotransfection assay
T1 sequence (P19793 whole entry): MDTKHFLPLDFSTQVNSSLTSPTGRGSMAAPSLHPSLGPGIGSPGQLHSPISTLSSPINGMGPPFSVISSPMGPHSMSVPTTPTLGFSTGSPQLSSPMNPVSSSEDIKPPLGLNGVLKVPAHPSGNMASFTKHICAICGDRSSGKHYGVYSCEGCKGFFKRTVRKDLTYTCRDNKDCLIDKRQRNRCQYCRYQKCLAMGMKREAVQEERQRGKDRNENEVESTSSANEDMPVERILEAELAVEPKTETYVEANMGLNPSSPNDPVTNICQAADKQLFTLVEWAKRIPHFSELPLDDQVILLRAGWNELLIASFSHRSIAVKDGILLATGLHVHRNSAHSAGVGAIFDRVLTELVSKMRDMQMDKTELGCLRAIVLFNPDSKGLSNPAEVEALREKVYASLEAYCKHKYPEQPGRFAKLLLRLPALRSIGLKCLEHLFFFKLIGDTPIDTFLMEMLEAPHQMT

[2] = Activity at RXR-LXR heterodimer assessed as induction of ABCA1 mRNA; design: species or system Homo sapiens
[3] = molecular target: T2, Retinoic acid receptor RXR-alpha (Homo sapiens) (UniProt P19793); assay: Activity at RXRalpha by GAL4DNA cotransfection assay relative to 5-((3-(1-ethyl-4,4,6-trimethyl-2-oxo-1,2,3,4-tetrahydroquinolin-7-yl)-4-(trifluoromethoxy)phenyl)methylene)thiazolidine-2,4-dione; design: concentration or dose not given beside the values
T2 sequence (whole entry): T1 sequence (P19793 whole entry)

Homo sapiens = organism: Homo sapiens; assay: Activation of RXR-LXR heterodimer assessed as induction of ABCA1 mRNA relative to 5-((3-(1-ethyl-4,4,6-trimethyl-2-oxo-1,2,3,4-tetrahydroquinolin-7-yl)-4-(trifluoromethoxy)phenyl)methylene)thiazolidine-2,4-dione; design: concentration or dose not given beside the values
[4] = Activity at RXR-PPARgamma in human preadipocytes assessed as induction of adipocytes fatty acid binding protein; assay type: cell-based

| pEC50 [1] | pEC50 [2] | Activity [3] [%] | Activity (Homo sapiens) [%] | pEC50 [4] | Structure (SMILES) |
| --- | --- | --- | --- | --- | --- |
| 6.84 | < 5.52 | 108 | – | – | Cc1cc2c(cc1-c1cc(C3CC3C(=O)O)ccc1OCC(F)(F)F)N(C)C(=O)CC2(C)C (racemic) |
| 6.70 | < 5.52 | 50 | – | – | Cc1cc2c(cc1-c1cc([C@H]3C[C@@H]3C(=O)O)ccc1OC(F)(F)F)N(C(C)C)C(=O)CC2(C)C |
| – | < 5.52 | – | – | – | CCN1C(=O)CC(C)(C)c2cc(C)c(-c3cc(OC(C)(C)C(=O)O)ccc3OC(F)(F)F)cc21 |
| 8.30 | < 5.52 | 85 | – | – | Cc1cc2c(cc1-c1cc(C3CC3C(=O)O)ccc1OC(F)(F)F)N(C(C)C)C(=O)CC2(C)C (racemic) |
| 6.94 | < 5.52 | 87 | – | – | CCN1C(=O)CC(C)(C)c2cc(C)c(-c3cc(C4CC4C(=O)O)ccc3OCC(F)(F)F)cc21 (racemic) |
| 7.44 | 6.43 | 79 | 45 | – | Cc1cc2c(cc1-c1cc(CCC(=O)O)ccc1OCC(F)(F)F)N(C(C)C)C(=O)CC2(C)C |
| 6.68 | 5.82 | 50 | – | – | COc1ccc(C2CC2C(=O)O)cc1-c1cc2c(cc1C)C(C)(C)CC(=O)N2C(C)C (racemic) |
| 6.28 | < 5.52 | 70 | – | – | CCN1C(=O)CC(C)(C)c2cc(C)c(-c3cc(CCCC(=O)O)ccc3OC(F)(F)F)cc21 |
| 6.44 | < 5.52 | 92 | – | – | CCN1C(=O)CC(C)(C)c2cc(C)c(-c3cc([C@H]4C[C@@H]4C(=O)O)ccc3OC(F)(F)F)cc21 |
| 6.12 | < 5.52 | 85 | – | – | CCN1C(=O)CC(C)(C)c2cc(C)c(-c3cc(CC(C)C(=O)O)ccc3OC(F)(F)F)cc21 (stereo not drawn) |
| 7.72 | 7.76 | 88 | – | – | CCN1C(=O)CC(C)(C)c2cc(C)c(-c3cc(C4CC4C(=O)O)ccc3OC(F)(F)F)cc21 (racemic) |
| 8.00 | < 5.52 | 70 | – | 6.58 | Cc1cc2c(cc1-c1cc([C@@H]3C[C@H]3C(=O)O)ccc1OC(F)(F)F)N(C(C)C)C(=O)CC2(C)C |
| – | 8.44 | 115 | 81 | – | CCN1C(=O)CC(C)(C)c2cc(C)c(-c3cc(/C=C/C(=O)O)ccc3OC(F)(F)F)cc21 |
| 7.15 | < 5.52 | 90 | – | < 5.52 | CCN1C(=O)CC(C)(C)c2cc(C)c(-c3cc(CCC(=O)O)ccc3OCC(F)(F)F)cc21 |
